Target: T1, KCNQ2/3 channels (Homo sapiens, UniProt O43525+O43526)
T1 construct: expressed in transfected cells; host or cells: CHO-K1 cells
Experiment: Fluorescence assay using a voltage-sensitive dye (fluorimetry)
Assay type: cell-based
Conditions: for EC50: CHO-K1 cells expressing KCNQ2/3 channels; for Emax at 1 µM: 50 μM retigabine = 100%, CHO-K1 cells expressing KCNQ2/3, read-out: Fluorimetry % efficacy at 1 μM (50 μM retigabine = 100%)
Procedure: […] CHO-K1 cells expressing KCNQ2/3 channels are cultivated adherently at 37° C., 5% CO2 and 95% humidity in cell culture bottles (e.g. 80 cm^2 TC flasks, Nunc) with DMEM-high glucose (Sigma Aldrich, D7777) including 10% FCS (PAN Biotech, e.g. 3302-P270521) or alternatively MEM Alpha Medium (1×, liquid, Invitrogen, #22571), 10% foetal calf serum (FCS) (Invitrogen, #10270-106, heat-inactivated) and the necessary selection antibiotics.
Before being seeded out for the measurements, the cells are washed with a 1×DPBS buffer without Ca^2+/Mg^2+ (e.g. Invitrogen, #14190-094) and detached from the bottom of the culture vessel by means of Accutase (PAA Laboratories, #L11-007) (incubation with Accutase for 15 min at 37° C.). The cell count then present is determined using a CASY™ cell counter (TCC model, Scharfe System) in order subsequently to apply 20,000 to 30,000 cells/well/100 μl of the described nutrient medium, depending on density optimisation for the individual cell line, to 96-well measuring plates of the Corning™ CeIIBIND™ type (flat clear-bottom black polystyrene microplates, #3340). Incubation is then carried out for one hour at room temperature, without gassing or adjusting the humidity, followed by incubation for 24 hours at 37° C., 5% CO2 and 95% humidity.
The voltage-sensitive fluorescent dye from the Membrane Potential Assay Kit (Red™ bulk format part R8123 for FLIPR, MDS Analytical Technologies™) is prepared by dissolving the contents of a vessel of Membrane Potential Assay Kit Red Component A in 200 ml of extracellular buffer (ES buffer, 120 mM NaCl, 1 mM KCl, 10 mM HEPES, 2 mM CaCl2, 2 mM MgCl2, 10 mM glucose; pH 7.4). After removal of the nutrient medium, the cells are washed with 200 μl of ES buffer, then covered with a layer of 100 μl of the dye solution prepared above and incubated for 45 min at room temperature with exclusion of light.
The fluorescence measurements are carried out with a BMG Labtech FLUOstar™, BMG Labtech NOVOstar™ or BMG Labtech POLARstar™ instrument (525 nm excitation, 560 nm emission, bottom-read mode). After incubation of the dye, 50 μl of the substances to be tested in the desired concentrations, or 50 μl of ES buffer for control purposes, are introduced into separate cavities of the measuring plate and incubated for 30 min at room temperature whilst being shielded from light. The fluorescence intensity of the dye is then measured for 5 min and the fluorescence value F1 of each well is thus determined at a given, constant time. 15 μl of a […] KCl solution ([…]) are then added to each well. The change in fluorescence is subsequently measured until all relevant measured values have been obtained (mainly 5-30 min). At a given time after KCl application, a fluorescence value F2 is determined, in this case at the time of the fluorescence peak.
For calculation, the fluorescence intensity F2 is compared with the fluorescence intensity F1, and the agonistic activity of the target compound on the potassium channel is determined therefrom. F2 and F1 are calculated as follows: […]
is determined by adding to the reaction batch only the buffer solution instead of the substance to be tested, determining the value F1K of the fluorescence intensity, adding the potassium ions as described above and measuring a value F2K of the fluorescence intensity. Then F2K and F1K are calculated as follows: […]
Calculations of EC50 values are carried out with the aid of Prism v4.0 software (GraphPad Software™).

Row | EC50 | Emax at 1 µM | SMILES
1 | 744 nM | 143% | CCCCCSc1nc2ccccc2cc1C(=O)NCc1cccs1 [compound 1, 2-(Pentylthio)-N-(2-thienylmethyl)-3-quinoline carboxamide]
2 | – | 26% | COC(=O)CCSc1nc2ccccc2cc1C(=O)NCc1cccs1 [compound 2, 3-{[3-[Oxo-(2-thienylmethylamino)methyl]-2-quinolyl]thio}propanoic acid methyl ester]
3 | 1930 nM | 77% | O=C(NCc1cccs1)c1cc2ccccc2nc1SCCCC1CCCCC1 [compound 3]
4 | 144 nM | 168% | O=C(NCc1cccs1)c1cc2ccccc2nc1SCCCc1ccccc1 [compound 4]
5 | 2660 nM | 98% | O=C(NCc1cccs1)c1cc2ccccc2nc1SCCS(=O)(=O)c1ccccc1 [compound 5, 2-[2-(Phenylsulfonyl)ethylthio]-N-(2-thienyl-methyl)-3-quinoline carboxamide]
6 | 1220 nM | 111% | O=C(NCc1cccs1)c1cc2ccccc2nc1SCCCc1ccc(F)cc1 [compound 6]
7 | 1350 nM | – | CCSc1nc2ccccc2cc1C(=O)NCc1cccs1 [compound 7, 2-(Ethylthio)-N-(2-thienylmethyl)-3-quinoline carboxamide]
8 | – | 46% | O=C(NCc1cccs1)c1cc2cc(C(F)(F)F)ccc2nc1SCCS(=O)(=O)c1ccccc1 [compound 8, 2-[2-(Phenylsulfonyl)ethylthio]-N-(2-thienyl-methyl)-6-(trifluoromethyl)-3-quinoline carboxamide]
9 | – | 26% | O=C(NCc1cccs1)c1cc2ccc(C(F)(F)F)cc2nc1SCCS(=O)(=O)c1ccccc1 [compound 9]
10 | – | 9% | O=C(NCc1cccs1)c1cc2c(C(F)(F)F)cccc2nc1SCCS(=O)(=O)c1ccccc1 [compound 10]
11 | – | 41% | CCCCCSc1nc2ccc(C(F)(F)F)cc2cc1C(=O)NCc1cccs1 [compound 11, 2-(Pentylthio)-N-(2-thienylmethyl)-6-(trifluoromethyl)-3-quinoline carboxamide]
12 | 412 nM | 155% | CCSc1nc2ccc(C(F)(F)F)cc2cc1C(=O)NCc1cccs1 [compound 12]
13 | 991 nM | 136% | O=C(NCc1cccs1)c1cc2ccccc2nc1SCCS(=O)(=O)c1cccc(C(F)(F)F)c1 [compound 13, N-(2-Thienylmethyl)-2-[2-[3-(trifluoromethyl)-phenyl]sulfonylethylthio]-3-quinoline carboxamide]
14 | 778 nM | 145% | CCCCCSc1nc2cc(C(F)(F)F)ccc2cc1C(=O)NCc1cccs1 [compound 15]
15 | 78 nM | 164% | O=C(NCc1cccs1)c1cc2ccccc2nc1SCCS(=O)(=O)c1ccc(F)cc1 [compound 16]
16 | – | 77% | Cc1ccc(S(=O)(=O)CCSc2nc3ccccc3cc2C(=O)NCc2cccs2)cc1 [compound 17]
17 | – | 72% | Cc1ccc(SCCSc2nc3ccccc3cc2C(=O)NCc2cccs2)cc1 [compound 18]
18 | 167 nM | 71% | O=C(NCC1CCCCC1)c1cc2ccccc2nc1SCCS(=O)(=O)c1ccccc1 [compound 19]
19 | – | 64% | Cc1ccc(CCCSc2nc3ccccc3cc2C(=O)NCc2cccs2)cc1 [compound 20]
20 | 119 nM | 30% | O=C(NCc1cccs1)c1cc2ccccc2nc1SCCSc1ccccc1 [compound 21]
21 | – | 15% | O=C(NCCC1CCCCC1)c1cc2ccccc2nc1SCCS(=O)(=O)c1ccccc1 [compound 22]
22 | – | 14% | CC(C)(C)CCNC(=O)c1cc2ccccc2nc1SCCS(=O)(=O)c1ccccc1 [compound 23]
23 | – | 27% | O=C(NCc1cccs1)c1cc2ccccc2nc1SCCSc1ccc(F)cc1 [compound 24]
24 | – | 8% | CCSc1nc2cc(C(F)(F)F)ccc2c(C)c1C(=O)NCCC(C)(C)C [compound 25]
25 | – | 47% | CCSc1nc2cc(C(F)(F)F)ccc2c(C)c1C(=O)NCC(C)(C)C [compound 28]

Row | EC50 | Emax at 1 µM | SMILES
26 | 367 nM | 86% | CCSc1nc2cc(C(F)(F)F)ccc2c(C)c1C(=O)NCC1CCCCCC1 [compound 29]
27 | 145 nM | 159% | CCSc1nc2cc(C(F)(F)F)ccc2c(C)c1C(=O)NCc1ccc(F)c(F)c1 [compound 31]
28 | 59 nM | 70% | CCSc1nc2cc(C(F)(F)F)ccc2c(C)c1C(=O)NCc1ccc(F)cc1F [compound 32]
29 | 140 nM | 162% | CCSc1nc2cc(C(F)(F)F)ccc2c(C)c1C(=O)NCc1cc(F)c(F)c(F)c1 [compound 33]
30 | 98 nM | 72% | CCSc1nc2cc(C(F)(F)F)ccc2c(C)c1C(=O)NCc1cc(F)c(F)cc1F [compound 34]
31 | 2650 nM | 142% | CCSc1nc2cc(C(F)(F)F)ccc2c(C)c1C(=O)NCc1ccncc1 [compound 35]
32 | 136 nM | 93% | CCSc1nc2cc(C(F)(F)F)ccc2c(C)c1C(=O)NCc1ccc(C(C)(C)C)cc1 [compound 36]
33 | 76 nM | 142% | CCSc1nc2cc(C(F)(F)F)ccc2c(C)c1C(=O)NCc1cccc(C(F)(F)F)c1 [compound 38]
34 | 473 nM | 48% | CCSc1nc2cc(C(F)(F)F)ccc2c(C)c1C(=O)NCCc1ccccc1 [compound 39]
35 | 194 nM | 152% | CCSc1nc2cc(C(F)(F)F)ccc2c(C)c1C(=O)NCCCc1ccccc1 [compound 40]
36 | 1100 nM | 121% | CCSc1nc2cc(C(F)(F)F)ccc2c(C)c1C(=O)NCc1ccccn1 [compound 41]
37 | 159 nM | 77% | CCSc1nc2cc(C(F)(F)F)ccc2c(C)c1C(=O)NCc1ccc2ccccc2c1 [compound 43]
38 | 587 nM | 169% | CCSc1nc2cc(C(F)(F)F)ccc2c(C)c1C(=O)NCc1nccs1 [compound 44]
39 | – | 23% | CCSc1nc2cc(C(F)(F)F)ccc2c(C)c1C(=O)NCc1nnco1 [compound 45]
40 | 141 nM | 155% | CCCSc1nc2cc(C(F)(F)F)ccc2c(C)c1C(=O)NCc1cccc(F)c1 [compound 46]
41 | 73 nM | 152% | Cc1c(C(=O)NCc2cccc(F)c2)c(SC(C)C)nc2cc(C(F)(F)F)ccc12 [compound 47]
42 | 56 nM | 133% | Cc1c(C(=O)NCc2cccc(F)c2)c(SC2CCCC2)nc2cc(C(F)(F)F)ccc12 [compound 48]
43 | 74 nM | 151% | CCCCSc1nc2cc(C(F)(F)F)ccc2c(C)c1C(=O)NCc1cccc(F)c1 [compound 49]
44 | 61 nM | 150% | CCCCCSc1nc2cc(C(F)(F)F)ccc2c(C)c1C(=O)NCc1cccc(F)c1 [compound 50]
45 | 37 nM | 158% | CCC(C)Sc1nc2cc(C(F)(F)F)ccc2c(C)c1C(=O)NCc1cccc(F)c1 (centres unmarked) [compound 51]
46 | 64 nM | 102% | Cc1c(C(=O)NCc2cccc(F)c2)c(SC2CCCCC2)nc2cc(C(F)(F)F)ccc12 [compound 52]
47 | 256 nM | 73% | CCSc1nc2cc(C(F)(F)F)ccc2c(C)c1C(=O)NCCC1CCCC1 [compound 53]
48 | 162 nM | 229% | CCSc1nc2cc(C(F)(F)F)ccc2c(C)c1C(=O)NCCCC1CCCC1 [compound 54]
49 | 149 nM | 167% | CCSc1nc2cc(C(F)(F)F)ccc2c(C)c1C(=O)NCc1ccc(C(F)(F)F)cc1 [compound 55]

— patent US20100234372A1, “SUBSTITUTED 2-MERCAPTOQUINOLINE-3-CARBOXAMIDES AS KCNQ2/3 MODULATORS” (GRUNENTHAL GMBH, priority 2009, published 2010)
